Reference: US6306879A, “Stable aqueous solution of 3-(1-oxo-1,3-dihydroisoindol-2-yl)-piperidine-2-6-dione” (Gruenenthal GmbH, priority 1999, dated 2001)

Assays:
[1] = Spontaneous hydrolysis of EM 12 in aqueous solution; assay type: physicochemical
[2] = tested on: TNF-α production of LPS-activated monocytes; assay: TNF-α production of LPS-activated monocytes (sandwich ELISA); assay type: cell-based; conditions: LPS-activated human monocytes
Experimental: (§1) In order to investigate the immunomodulatory efficacy of the solutions produced, human monocytes were isolated from peripheral blood mononuclear cells (PBMCs) and were activated with bacterial LPS (lipopolysaccharide). The concentration of TNF-α and IL-12 in the supernatant liquors from all cell cultures was determined by means of sandwich ELISAs (Biosource Europe, Fleurus, Belgium).

[3] = tested on: IL-12 production of LPS-activated monocytes; assay: IL-12 production of LPS-activated monocytes (sandwich ELISA); assay type: cell-based; conditions: LPS-activated human monocytes
Experimental: as §1

[4] = Stability testing of the EM 12 solution over 2 weeks; assay type: physicochemical; conditions: after 2 weeks; 200 μg/ml in 5% glucose, pH 5.5, room temperature
From the text: The solution was stored at room temperature. The pH of the final solution was 5.5.
Portions of the solutions were repeatedly taken as samples for analysis over a period of 2 weeks.

[5] = tested on: severe aphthous stomatitis; conditions: cited from earlier work
[6] = Arch. Pharm. 321, 371 (1988); cited from earlier work
[7] = tested on: cutaneous lupus erythematodes, pyoderma gangrenosum, urogenital ulcers in Bechet's syndrome, ulcerations in those infected with HIV; conditions: without resulting in general immunosuppression; cited from earlier work

Structure (SMILES)	spontaneous hydrolysis ([1]; aqueous EM 12 solution, pH less than or equal to 5.5)	tendency to undergo spontaneous hydrolysis ([1]; aqueous solutions)	TNF-α concentration in supernatant ([2]; EM 12 2 μg/ml) [pg/mL]	TNF-α concentration in supernatant ([2]; EM 12 10 μg/ml) [pg/mL]	IL-12 concentration in supernatant ([3]; EM 12 2 μg/ml) [pg/mL]	IL-12 concentration in supernatant ([3]; EM 12 10 μg/ml) [pg/mL]	EM 12 present in solution after storage [4]	biological efficacy after storage [4]	efficacy vs classical immunosuppressants [5]	solubility in water [6]	efficacy [7]
O=C1CCC(N2Cc3ccccc3C2=O)C(=O)N1 (racemic) [EM 12, 3-(1-oxo-1,3-dihydroisoindol-2-yl)-piperidine-2,6-dione]	does not occur	tendency of EM 12 to undergo spontaneous hydrolysis	9915	9548	528	464	still present	retained its full biological efficacy	–	–	–
O=C1CCC(N2C(=O)c3ccccc3C2=O)C(=O)N1 (centres unmarked) [Thalidomide, 2-(2,6-dioxo-piperidin-3-yl)-isoindole-1,3-dione]	–	–	–	–	–	–	–	–	superior	low	good efficacy
